What all share (conditions): stereoisomer not certain
A short description of data set [1]: RP, Merck Supelco Ascentis Express C18, 100 × 2.1 mm, 2 µm, 40 °C, 0.2 mL/min, estimated dead time 1.1 min; A: water + 0.1% formic acid, pH 3; B: acetonitrile + 0.1% formic acid, pH 3; gradient (min/%B) 0/5 2/5 17/99.9 20/99.9.
Assay in data set [2]: as above
This is another data set of the same source.

A short description of data set [3]: RP, Merck Supelco Ascentis Express C18, 100 × 2.1 mm, 2 µm, 40 °C, 0.4 mL/min, estimated dead time 0.55 min; A: water + 0.1% formic acid, pH 3; B: acetonitrile + 0.1% formic acid, pH 3; gradient (min/%B) 0/5 2/5 17/99.9 20/99.9.
Assay in data set [4]: as above
The source holds these as a separate data set.

A short description of data set [5]: RP, Merck Supelco Ascentis Express C18, 100 × 2.1 mm, 2 µm, 39 °C, 0.3 mL/min, estimated dead time 0.73 min; A: water + 0.1% formic acid, pH 3; B: acetonitrile + 0.1% formic acid, pH 3; gradient (min/%B) 0/5 2/5 17/99.9 20/99.9.
Data set [6] is described as follows: RP, Merck Supelco Ascentis Express C18, 100 × 2.1 mm, 2 µm, 40 °C, 0.25 mL/min, estimated dead time 0.88 min; A: water + 0.1% formic acid, pH 3; B: acetonitrile + 0.1% formic acid, pH 3; gradient (min/%B) 0/5 2/5 17/99.9 20/99.9.
Data set [7] is described as follows: RP, Merck Supelco Ascentis Express C18, 100 × 2.1 mm, 2 µm, 40 °C, 0.35 mL/min, estimated dead time 0.63 min; A: water + 0.1% formic acid, pH 3; B: acetonitrile + 0.1% formic acid, pH 3; gradient (min/%B) 0/5 2/5 17/99.9 20/99.9.

Regarding `O=C(O)C=Cc1ccc(O)cc1` [4-COUMARATE], the LC retention time in data set [1] is 6.26 min; in data set [2] it was 6.25 min; in data set [3], 4.68 min; in data set [4], 4.64 min; in data set [5], 5.3 min; in data set [6], 5.68 min. Besides, the LC retention time in data set [7] was 4.94 min.
`Cc1cn(C2CC(O)C(CO)O2)c(=O)[nH]c1=O` (stereo unspecified) [THYMIDINE]: the LC retention time in data set [1] was 2.06 min; in data set [2], 2.09 min; in data set [3], 1.05 min; in data set [4] it was 1.04 min; in data set [5], 1.36 min; in data set [6], 1.64 min. Further, the LC retention time in data set [7] was 1.19 min.
Turning to `CC12CCC(=O)C=C1CCC1C2C(=O)CC2(C)C1CCC2(O)C(=O)CO` (stereo unspecified) [CORTISONE], the LC retention time in data set [1] is 8.09 min; in data set [2] it was 8.07 min; in data set [3], 6.73 min; in data set [4], 6.69 min; in data set [5] it was 7.21 min; in data set [6], 7.56 min. Also, in data set [7], the LC retention time is 6.91 min.
For `CSCCC(O)C(=O)O` (stereo unspecified) [2-HYDROXY-4-(METHYLTHIO)BUTANOATE], the LC retention time was 3.75 min in data set [1]; 3.75 min in data set [2]; 1.9 min in data set [3]; 1.86 min in data set [4]; 2.49 min in data set [5]; 3 min in data set [6]. The LC retention time in data set [7] is 2.15 min.
As to `Cn1cnc2c(ncn2C2OC(CO)C(O)C2O)c1=N` (stereo unspecified) [1-METHYLADENOSINE], the LC retention time is 2.01 min in data set [1]; 2.01 min in data set [2]; 1.01 min in data set [3]; 0.993 min in data set [4]; 1.31 min in data set [5]; 1.58 min in data set [6]. Moreover, in data set [7], the LC retention time is 1.16 min.
Regarding `O=C(O)Cc1ccc(O)cc1` [P-HYDROXYPHENYLACETATE], the LC retention time in data set [1] is 5 min; in data set [2], 4.99 min; in data set [3], 3.36 min; in data set [4], 3.34 min; in data set [5], 4.02 min; in data set [6], 4.43 min. Also, the LC retention time in data set [7] was 3.64 min.
Turning to `Nc1nc2c(ncn2C2CC(O)C(CO)O2)c(=O)[nH]1` (stereo unspecified) [DEOXYGUANOSINE], the LC retention time in data set [1] was 1.44 min; in data set [2], 1.47 min; in data set [3], 0.703 min; in data set [4], 0.707 min; in data set [5], 0.943 min; in data set [6], 1.13 min. Besides, the LC retention time in data set [7] is 0.82 min.
As for `CC(CCC(=O)NCC(=O)O)C1CCC2C3C(O)CC4CC(O)CCC4(C)C3CC(O)C12C` (stereo unspecified) [GLYCOCHOLATE], the LC retention time was 9.22 min in data set [1]; 9.2 min in data set [2]; 8 min in data set [3]; 7.96 min in data set [4]; 8.42 min in data set [5]; 8.75 min in data set [6]. Further, in data set [7], the LC retention time is 8.17 min.
Turning to `COc1cc(C=CC(=O)O)ccc1O` [FERULATE], the LC retention time in data set [1] was 6.33 min; in data set [2], 6.32 min; in data set [3], 4.85 min; in data set [4] it was 4.81 min; in data set [5], 5.39 min; in data set [6] it was 5.78 min. Also, the LC retention time in data set [7] is 5.07 min.
Consider `CCCCCCSCC(NC(=O)CCC(N)C(=O)O)C(=O)NCC(=O)O` (stereo unspecified) [S-HEXYL-GLUTATHIONE], for which the LC retention time in data set [1] is 7.13 min; in data set [2], 7.14 min; in data set [3], 5.87 min; in data set [4], 5.85 min; in data set [5], 6.32 min; in data set [6], 6.66 min. The LC retention time in data set [7] is 6.06 min.
Consider `O=C(C=Cc1ccc(O)c(O)c1)OC(Cc1ccc(O)c(O)c1)C(=O)O` (stereo unspecified) [ROSMARINATE], for which the LC retention time in data set [1] is 6.9 min; in data set [2], 6.88 min; in data set [3], 5.62 min; in data set [4], 5.6 min; in data set [5], 6.1 min; in data set [6] it was 6.41 min. In addition, the LC retention time in data set [7] is 5.82 min.
Consider `Nc1ccccc1S(=O)(=O)O` [ANILINE-2-SULFONATE], for which the LC retention time in data set [1] is 1.74 min; in data set [2], 1.76 min; in data set [3] it was 0.847 min; in data set [4], 0.823 min; in data set [5], 1.18 min; in data set [6], 1.38 min. In addition, in data set [7], the LC retention time is 0.95 min.
Regarding `O=C(O)c1ccc(O)c(O)c1` [3,4-DIHYDROXYBENZOATE], the LC retention time in data set [1] was 3.05 min; in data set [2], 3.06 min; in data set [3] it was 1.53 min; in data set [4] it was 1.52 min; in data set [5], 2.06 min; in data set [6] it was 2.44 min. The LC retention time in data set [7] is 1.76 min.
As to `O=C([O-])CCCCCCC(=O)[O-]` [SUBERATE], the LC retention time in data set [1] is 6.08 min; in data set [2], 6.08 min; in data set [3], 4.62 min; in data set [4] it was 4.59 min; in data set [5], 5.22 min; in data set [6], 5.55 min. For the same compound, the LC retention time in data set [7] was 4.87 min.
As for `Nc1nc2nc[nH]c2c(=O)[nH]1` [GUANINE], the LC retention time in data set [1] is 1.37 min; in data set [2], 1.36 min; in data set [3] it was 0.663 min; in data set [4] it was 0.693 min; in data set [5], 0.883 min; in data set [6], 1.09 min. Besides, the LC retention time in data set [7] was 0.757 min.
For the compound `CC(C)(CO)C(O)C(=O)NCCC(=O)O` (stereo unspecified) [PANTOTHENATE], the LC retention time is 2.7 min in data set [1]; 2.71 min in data set [2]; 1.38 min in data set [3]; 1.36 min in data set [4]; 1.79 min in data set [5]; 2.15 min in data set [6]. Moreover, the LC retention time in data set [7] was 1.56 min.
Regarding `Cn1c(=O)c2[nH]cnc2n(C)c1=O` [THEOPHYLLINE], the LC retention time is 3.98 min in data set [1]; 3.96 min in data set [2]; 2.16 min in data set [3]; 2.15 min in data set [4]; 2.81 min in data set [5]; 3.32 min in data set [6]. The LC retention time in data set [7] was 2.47 min.
In the case of `O=c1[nH]c(=O)c2nccnc2[nH]1` [2,4-DIHYDROXYPTERIDINE], the LC retention time in data set [1] was 1.41 min; in data set [2], 1.41 min; in data set [3], 0.7 min; in data set [4], 0.687 min; in data set [5], 0.967 min; in data set [6], 1.13 min. In data set [7], the LC retention time is 0.783 min.
For the compound `Nc1nc2ncc(CNc3ccc(C(=O)NC(CCC(=O)O)C(=O)O)cc3)nc2c(=O)[nH]1` (stereo unspecified) [FOLATE], the LC retention time in data set [1] is 4.66 min; in data set [2] it was 4.69 min; in data set [3], 3.58 min; in data set [4] it was 3.58 min; in data set [5] it was 3.99 min; in data set [6], 4.27 min. For the same compound, the LC retention time in data set [7] was 3.76 min.
`O=Cc1ccc(O)cc1` [4-HYDROXYBENZALDEHYDE]: the LC retention time in data set [1] is 5.47 min; in data set [2], 5.46 min; in data set [3], 3.64 min; in data set [4], 3.59 min; in data set [5], 4.34 min; in data set [6], 4.82 min. In data set [7], the LC retention time is 3.94 min.
For the compound `O=C(O)c1cc(O)ccc1O` [2,5-DIHYDROXYBENZOATE], the LC retention time in data set [1] is 4.65 min; in data set [2] it was 4.65 min; in data set [3] it was 2.66 min; in data set [4], 2.63 min; in data set [5], 3.5 min; in data set [6], 4.02 min. Also, in data set [7], the LC retention time is 3.04 min.
Turning to `CC(=O)NCCCC(=O)O` [4-ACETAMIDOBUTANOATE], the LC retention time in data set [1] was 1.63 min; in data set [2] it was 1.63 min; in data set [3] it was 0.8 min; in data set [4], 0.783 min; in data set [5], 1.07 min; in data set [6], 1.29 min. For the same compound, the LC retention time in data set [7] is 0.923 min.
Take `O=C(O)c1cc(=O)c2ccccc2[nH]1` [KYNURENATE]: the LC retention time in data set [1] is 4.53 min; in data set [2], 4.52 min; in data set [3] it was 2.97 min; in data set [4], 2.93 min; in data set [5], 3.64 min; in data set [6] it was 4 min. For the same compound, the LC retention time in data set [7] was 3.24 min.

Values taken from the RepoRT retention time repository (doi:10.1007/s00216-021-03828-0).
